Data from ChEMBL document CHEMBL1201862, “PubChem BioAssay data set” (2004).
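Dose response: 5 concentrations. Exposure: 48 h. Format: 96-well plates. Endpoint: linear interpolation; highest concentration if not reached. Here, GI50 denotes the concentration required for 50% inhibition of growth.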 Calls of active or inactive are those of the source. Rule as the data show it: active = GI50 up to about 1.1 µM and inactive = higher.

Legend:
Assay in all cases: NCI-60 cell line screen, 48 h
786-0 = tested on: 786-0
A549 = tested on: A549
BT-549 = tested on: BT-549
HCC 2998 = tested on: HCC 2998
HCT-15 = tested on: HCT-15
HL-60 = tested on: HL-60
Hs-578T = tested on: Hs-578T
IGROV-1 = tested on: IGROV-1
MOLT-4 = tested on: MOLT-4
NCI-H460 = tested on: NCI-H460
NCI/ADR-RES = tested on: NCI/ADR-RES
OVCAR-3 = tested on: OVCAR-3
PC-3 = tested on: PC-3
SF-268 = tested on: SF-268
SF-539 = tested on: SF-539
SK-MEL-2 = tested on: SK-MEL-2
SNB-75 = tested on: SNB-75
SR = tested on: SR
TK-10 = tested on: TK-10
UACC-62 = tested on: UACC-62

Compound | GI50 (786-0) | GI50 (A549) | GI50 (BT-549) | GI50 (HCC 2998) | GI50 (HCT-15) [µM] | GI50 (HL-60) | GI50 (Hs-578T) | GI50 (IGROV-1) | GI50 (MOLT-4) | GI50 (NCI-H460) | GI50 (NCI/ADR-RES) | GI50 (OVCAR-3) | GI50 (PC-3) | GI50 (SF-268) | GI50 (SF-539) | GI50 (SK-MEL-2) | GI50 (SNB-75) | GI50 (SR) | GI50 (TK-10) | GI50 (UACC-62)
NCC(O)CN.Oc1c(Cl)c(Cl)c(Cl)c(Cl)c1Cl | 23.6 µM (inactive) | 18.7 µM (inactive) | 24 µM (inactive) | 17.9 µM (inactive) | 18.2 | 16 µM (inactive) | 33.9 µM (inactive) | 13.4 µM (inactive) | 19.7 µM (inactive) | 18.7 µM (inactive) | 18.1 µM (inactive) | 13.5 µM (inactive) | 22 µM (inactive) | 29.2 µM (inactive) | 24.4 µM (inactive) | 22.5 µM (inactive) | 22.1 µM (inactive) | 25.5 µM (inactive) | 24.5 µM (inactive) | 19 µM (inactive)
Cc1cccc(C(=O)O)c1CC1NCCC2c3ccccc3NC12 (stereo not given) | > 100 µM (inactive) | > 100 µM (inactive) | > 100 µM (inactive) | > 100 µM (inactive) | > 100 | > 100 µM (inactive) | > 100 µM (inactive) | > 100 µM (inactive) | > 100 µM (inactive) | > 100 µM (inactive) | > 100 µM (inactive) | 20.7 µM (inactive) | > 100 µM (inactive) | > 100 µM (inactive) | > 100 µM (inactive) | > 100 µM (inactive) | > 100 µM (inactive) | > 100 µM (inactive) | > 100 µM (inactive) | > 100 µM (inactive)
CC(C)[Si]1(C(C)C)OCC2OC(n3c(C(=O)c4ccccc4)cc(=O)[nH]c3=O)CC2O[Si](C(C)C)(C(C)C)O1 (stereo not given) | 3.05 µM (inactive) | 7.28 µM (inactive) | 4.69 µM (inactive) | 1.65 µM (inactive) | 2.72 | 2.67 µM (inactive) | 2.26 µM (inactive) | 3.28 µM (inactive) | 1.88 µM (inactive) | 3.58 µM (inactive) | 10.2 µM (inactive) | 2.08 µM (inactive) | 2.2 µM (inactive) | 2.78 µM (inactive) | 2.88 µM (inactive) | 5.05 µM (inactive) | 3.02 µM (inactive) | 2.61 µM (inactive) | 3.24 µM (inactive) | 2.81 µM (inactive)
COc1cc(C[C@H]2C(=O)OC[C@@H]2Cc2ccc(OC)c(OC)c2)cc(OC)c1 | > 100 µM (inactive) | 74.8 µM (inactive) | 16.8 µM (inactive) | > 100 µM (inactive) | 53.3 | 37.2 µM (inactive) | > 100 µM (inactive) | > 100 µM (inactive) | 27.2 µM (inactive) | > 100 µM (inactive) | 32.1 µM (inactive) | 59.3 µM (inactive) | 33 µM (inactive) | > 100 µM (inactive) | > 100 µM (inactive) | 78.5 µM (inactive) | 40.6 µM (inactive) | 30.5 µM (inactive) | > 100 µM (inactive) | 62.8 µM (inactive)
CN=C(n1ccnc1)n1ccnc1 | > 100 µM (inactive) | > 100 µM (inactive) | > 100 µM (inactive) | > 100 µM (inactive) | > 100 | > 100 µM (inactive) | > 100 µM (inactive) | > 100 µM (inactive) | > 100 µM (inactive) | > 100 µM (inactive) | > 100 µM (inactive) | > 100 µM (inactive) | > 100 µM (inactive) | > 100 µM (inactive) | > 100 µM (inactive) | > 100 µM (inactive) | > 100 µM (inactive) | > 100 µM (inactive) | > 100 µM (inactive) | > 100 µM (inactive)
O=c1cc(NCc2ccncc2)[nH]c(=O)[nH]1 | > 100 µM (inactive) | > 100 µM (inactive) | > 100 µM (inactive) | > 100 µM (inactive) | > 100 | > 100 µM (inactive) | > 100 µM (inactive) | > 100 µM (inactive) | > 100 µM (inactive) | > 100 µM (inactive) | > 100 µM (inactive) | > 100 µM (inactive) | > 100 µM (inactive) | > 100 µM (inactive) | > 100 µM (inactive) | > 100 µM (inactive) | > 100 µM (inactive) | > 100 µM (inactive) | > 100 µM (inactive) | > 100 µM (inactive)
CC(=O)N1C2=CCCC2(C)c2ccccc21 (stereo not given) | > 100 µM (inactive) | 37.7 µM (inactive) | > 100 µM (inactive) | 26.5 µM (inactive) | > 100 | 23.7 µM (inactive) | > 100 µM (inactive) | 63.5 µM (inactive) | 62.8 µM (inactive) | 72.8 µM (inactive) | 57.5 µM (inactive) | 37.5 µM (inactive) | 52.4 µM (inactive) | > 100 µM (inactive) | > 100 µM (inactive) | > 100 µM (inactive) | 38.3 µM (inactive) | > 100 µM (inactive) | > 100 µM (inactive) | 80.4 µM (inactive)
C[As](C)SCC(NC(=O)CCC(N)C(=O)O)C(=O)NCC(=O)O.c1ccncc1 (stereo not given) | 0.0891 µM (active) | 0.984 µM (active) | 0.168 µM (active) | 0.188 µM (active) | 0.0702 | 0.0578 µM (active) | 0.336 µM (active) | 1.42 µM (inactive) | 3.51 µM (inactive) | 2.38 µM (inactive) | 0.141 µM (active) | 0.0399 µM (active) | 0.268 µM (active) | 0.547 µM (active) | 0.105 µM (active) | 0.338 µM (active) | 2.7 µM (inactive) | 0.02 µM (active) | 0.202 µM (active) | 0.269 µM (active)
CCCN1C(=O)CCC2=C1CCc1c2ccc(Cl)c1Cl | 31.9 µM (inactive) | 27.2 µM (inactive) | 64.4 µM (inactive) | 21.3 µM (inactive) | 50.6 | 15.8 µM (inactive) | 0.0472 µM (active) | 30.8 µM (inactive) | 26.2 µM (inactive) | 43.6 µM (inactive) | 33.8 µM (inactive) | 23 µM (inactive) | 27.3 µM (inactive) | 27 µM (inactive) | 25.9 µM (inactive) | 13.5 µM (inactive) | 15.2 µM (inactive) | 31.8 µM (inactive) | 11.9 µM (inactive) | 0.492 µM (active)
COc1nc(N=P(c2ccccc2)(c2ccccc2)c2ccccc2)cc(=O)[nH]1 | > 100 µM (inactive) | > 100 µM (inactive) | > 100 µM (inactive) | > 100 µM (inactive) | > 100 | > 100 µM (inactive) | > 100 µM (inactive) | > 100 µM (inactive) | > 100 µM (inactive) | > 100 µM (inactive) | > 100 µM (inactive) | > 100 µM (inactive) | > 100 µM (inactive) | > 100 µM (inactive) | > 100 µM (inactive) | > 100 µM (inactive) | > 100 µM (inactive) | > 100 µM (inactive) | > 100 µM (inactive) | > 100 µM (inactive)
